Assay results from article PMC11372076, “A dual inhibitor of PIP5K1C and PIKfyve prevents SARS-CoV-2 entry into cells” (Experimental & Molecular Medicine, 2024).

Experiments:
Assay in all cases: SelectScreen Kinase Profiling Service (single point and 10 point titration)
Type in all cases: biochemical
PIP5K1C = PIP5K1C (Homo sapiens, UniProt O60331)
Excerpt: (§1) UNI418 has a core structure consisting of 4-quinazolinamine (Fig. 1a, green), which is often found in kinase inhibitors. […] The phosphoinositide (PI) system is a crucial regulatory mechanism in membrane trafficking and is tightly regulated through phosphorylation cascades by multiple phosphatidylinositol phosphate kinases (PIPKs)[30]. We hypothesized that UNI418 may inhibit PIPK(s) and performed PIPK profiling analysis. […] To test whether UNI418 interacts with PIP5K1C and PIKfyve, we performed a CETSA, which determines the characteristics of protein stabilization upon ligand binding to the target protein[31]. UNI418- or DMSO-treated cell lysates were incubated at different temperatures, and the presence of the target protein in the soluble fraction was analyzed by Western blotting (Fig. 1c).
(§2) Fig. 1 UNI418 specifically targets PIP5K1 and PIKfyve. a Chemical structure of UNI418. The 4-quinazolinamine core is highlighted in green. b Table of the kinase profiling analysis. Inhibition of several kinases was determined at a 1 μM concentration of UNI418 and analyzed by the SelectScreen Kinase Profiling Service (Thermo Fisher Scientific). c Cellular thermal shift assay. Ectopically expressed GFP-PIP5K1C and GFP-PIKfyve were heated to the indicated temperatures with/without UNI418, and the presence of protein in the soluble fraction was analyzed by Western blot analysis. TEXT PRINTED IN THE PICTURE: (b) UNI418: % Inhibition (mean): 11 ([ATP] Tested (μM): 10; Kinase Tested: PI4K2A (PI4K2 alpha)); % Inhibition (mean): 4 ([ATP] Tested (μM): 10; Kinase Tested: PI4K2B (PI4K2 beta)); % Inhibition (mean): -6 ([ATP] Tested (μM): 10; Kinase Tested: PI4KA (PI4K alpha)); % Inhibition (mean): 48 ([ATP] Tested (μM): Km app; Kinase Tested: PI4KB (PI4K beta)); % Inhibition (mean): 20 ([ATP] Tested (μM): 10; Kinase Tested: PIK3C2B (PI3K-C2 beta)); % Inhibition (mean): 22 ([ATP] Tested (μM): 10; Kinase Tested: PIK3C2G (PI3K-C2 gamma)); % Inhibition (mean): 4 ([ATP] Tested (μM): 100; Kinase Tested: PIK3C3 (hVPS34)); % Inhibition (mean): 8 ([ATP] Tested (μM): 10; Kinase Tested: PIK3CA/PIK3R3 (p110 alpha/p55 gamma)); % Inhibition (mean): 7 ([ATP] Tested (μM): 10; Kinase Tested: PIK3CB/PIK3R2 (p110 beta/p85 beta)); % Inhibition (mean): 9 ([ATP] Tested (μM): 10; Kinase Tested: PIP4K2A); % Inhibition (mean): 67 ([ATP] Tested (μM): 10; Kinase Tested: PIP5K1A); % Inhibition (mean): 93 ([ATP] Tested (μM): 10; Kinase Tested: PIP5K1B); % Inhibition (mean): 93 ([ATP] Tested (μM): 10; Kinase Tested: PIP5K1C); % Inhibition (mean): 100 ([ATP] Tested (μM): 100; Kinase Tested: PIKFYVE) | (b) Apilimod: % Inhibition (mean): 100 ([ATP] Tested (μM): 100; Kinase Tested: PIKFYVE) […]
(§3) Supplementary Fig. 2 UNI418 inhibits PIP5K1B/C and PIKfyve. a Inhibition graph of PIP5K1 kinases at the 10 point titration with UNI418. IC 50 value of PIP5K1 kinases was analyzed by Thermo Fisher Scientific’s SelectScreen kinase profiling service. b Kd (nM) values of PIP5K1C and PIKfyve inhibition were determined using the Eurofins kinase assay service.
(§4) (1 picture or pasted object on this page, not shown here)

PIP5K1B = PIP5K1B (Homo sapiens, UniProt O14986)
Excerpt: as §1, §2, §3, §4

PIP5K1A = PIP5K1A (Homo sapiens, UniProt Q99755)
Excerpt: as §1, §2, §3, §4

Sequence of PIP5K1A (Q99755 whole entry): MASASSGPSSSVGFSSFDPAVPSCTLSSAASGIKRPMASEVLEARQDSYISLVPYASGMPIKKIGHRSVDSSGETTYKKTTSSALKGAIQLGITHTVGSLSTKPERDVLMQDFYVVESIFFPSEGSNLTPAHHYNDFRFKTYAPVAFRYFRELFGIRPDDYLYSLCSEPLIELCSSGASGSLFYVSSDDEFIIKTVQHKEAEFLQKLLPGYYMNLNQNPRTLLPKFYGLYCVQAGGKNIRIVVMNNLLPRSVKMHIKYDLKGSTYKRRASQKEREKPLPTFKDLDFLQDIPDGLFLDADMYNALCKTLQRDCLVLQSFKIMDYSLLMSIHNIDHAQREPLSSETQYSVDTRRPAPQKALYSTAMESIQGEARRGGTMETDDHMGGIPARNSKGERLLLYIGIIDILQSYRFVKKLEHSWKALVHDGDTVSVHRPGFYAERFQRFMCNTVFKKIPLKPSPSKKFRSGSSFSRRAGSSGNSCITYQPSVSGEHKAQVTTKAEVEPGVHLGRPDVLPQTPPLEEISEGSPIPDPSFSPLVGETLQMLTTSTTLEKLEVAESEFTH
Sequence of PIP5K1C (O60331 whole entry): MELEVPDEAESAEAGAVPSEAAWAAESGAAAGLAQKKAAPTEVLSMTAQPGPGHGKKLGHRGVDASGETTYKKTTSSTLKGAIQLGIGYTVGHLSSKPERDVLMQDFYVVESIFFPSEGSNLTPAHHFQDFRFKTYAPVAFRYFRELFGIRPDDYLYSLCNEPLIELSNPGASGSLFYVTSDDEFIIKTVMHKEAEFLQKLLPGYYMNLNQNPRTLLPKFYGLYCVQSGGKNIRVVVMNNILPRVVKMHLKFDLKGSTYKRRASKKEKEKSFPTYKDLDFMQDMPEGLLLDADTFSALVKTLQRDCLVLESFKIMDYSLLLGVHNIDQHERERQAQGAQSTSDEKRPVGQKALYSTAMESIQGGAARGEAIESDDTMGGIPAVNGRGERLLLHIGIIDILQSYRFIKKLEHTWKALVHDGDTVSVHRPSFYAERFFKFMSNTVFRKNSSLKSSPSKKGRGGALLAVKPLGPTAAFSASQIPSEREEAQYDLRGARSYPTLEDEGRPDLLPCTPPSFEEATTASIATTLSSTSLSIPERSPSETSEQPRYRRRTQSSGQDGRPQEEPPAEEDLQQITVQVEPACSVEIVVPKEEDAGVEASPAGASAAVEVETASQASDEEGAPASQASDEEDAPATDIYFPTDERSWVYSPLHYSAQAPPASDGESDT
Sequence of PIP5K1B (O14986 whole entry): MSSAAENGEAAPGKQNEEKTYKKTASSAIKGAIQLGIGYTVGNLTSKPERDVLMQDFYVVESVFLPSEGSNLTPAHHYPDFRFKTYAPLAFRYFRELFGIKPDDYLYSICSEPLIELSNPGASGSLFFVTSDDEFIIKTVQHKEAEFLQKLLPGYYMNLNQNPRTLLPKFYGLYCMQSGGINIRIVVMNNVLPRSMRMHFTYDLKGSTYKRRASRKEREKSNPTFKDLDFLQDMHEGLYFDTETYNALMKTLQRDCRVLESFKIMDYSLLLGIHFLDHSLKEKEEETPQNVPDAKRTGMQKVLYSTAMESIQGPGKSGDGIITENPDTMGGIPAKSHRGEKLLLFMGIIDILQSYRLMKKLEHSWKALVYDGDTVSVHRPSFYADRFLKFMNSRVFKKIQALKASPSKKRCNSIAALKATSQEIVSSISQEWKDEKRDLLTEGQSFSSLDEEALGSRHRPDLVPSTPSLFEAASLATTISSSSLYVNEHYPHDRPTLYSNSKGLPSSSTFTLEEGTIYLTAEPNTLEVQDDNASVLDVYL

**Q.** Which IC50 (PIP5K1C) does the source give for c1ccc(-c2cc(Nc3nc(-c4ccncc4)nc4ccccc34)n[nH]2)cc1 [UNI418, N -(5-phenyl-1 H -pyrazol-3-yl)-2-(4-pyridinyl)-4-quinazolinamine] here?
**A.** Its IC50 is 60.1 nM.

**Q.** And the inhibition at 1 µM (PIP5K1C; 1 μM UNI418, [ATP] 10 μM)?
**A.** The inhibition at 1 µM was 93%.

**Q.** What about the IC50 (PIP5K1B) of the same compound?
**A.** Its IC50 is 60.7 nM.

**Q.** And the inhibition at 1 µM (PIP5K1B; 1 μM UNI418, [ATP] 10 μM)?
**A.** The inhibition at 1 µM was 93%.

**Q.** And the IC50 (PIP5K1A)?
**A.** The IC50 was 255 nM.

**Q.** And the inhibition at 1 µM (PIP5K1A; 1 μM UNI418, [ATP] 10 μM)?
**A.** The inhibition at 1 µM was 67%.
